From patent US12692221B2 (priority 2024, dated 2026)
Values after ≈ are worked out from the molar mass of the structure shown. “Also recorded” adds a separate entry of the source.

Experiments:
5-HT2B [1] = target: T1, 5-HT2B (Homo sapiens, UniProt P41595); assay: IP-One HTRF IP-1 accumulation functional assay, 5-HT2B/HEK293; type: cell-based; set-up: host or cells: HEK293
Experimental: Methods (5-HT2B IP-One Functional Activity Assays): Intracellular accumulation of IP-1 was measured using an IP-One HTRF) assay kit (Cat. #62IPAPEJ, Cisbio) at WuXi AppTec Co. Ltd. (Hong Kong) Discovery Biology Unit according to their standard protocols. Briefly, 5-HT2B/HEK293 were plated in a 384-well plate and incubated at 37° C. and 5% CO2 overnight. The reference compounds and screening compounds were 3.16-fold serially diluted in 100% DMSO for 10 points using Bravo. 70 nL of compounds were added to the cell plate using Echo555. Incubated for 60 minutes at 37° C. Added 3 μL of IP-1 d2 Reagent working solution and 3 μL of IP-1 Tb Cryptate Antibody working solution to all wells. The plates were incubated for 1 hour at room temperature and read on for fluorescence at 620 nm and 665 nm on an EnVision Multimode Plate Reader (PerkinElmer). The ratio of the acceptor and donor emission signals (665/620) were calculated for each individual well and substituted into the standard curve to obtain the log concentration of IP level. After converting to the antilog base IP-1, the average background control signal was subtracted from each well and values were normalized to the maximal response of 5-HT at 3 μM (100%). % MAX was calculated by taking the average normalized maximal response at the highest concentration tested. Data were analyzed using the four-parameter nonlinear regression curve-fitting function in GraphPad Prism 5 (GraphPad Software, San Diego, CA) to generate potency (EC50) values. Parameter constraint “Top=100” was used in the analysis of 5-HT2B IP-1. Represented plots show normalized IP-1 values versus compound concentrations; the corresponding numerical data are parameter estimates for the concentration-response curve using the 4-parameter nonlinear regression curve-fitting function in GraphPad Prism 10. “Top=100” parameter constraint was not enabled for the represented plot analysis.

5-HT2A [2] = target: T2, 5-HT2A (Homo sapiens, UniProt P28223); assay: IP-One HTRF IP-1 accumulation functional assay, 5-HT2A-expressing HEK293; type: cell-based; set-up: host or cells: HEK293
Experimental: Methods (5-HT2A and 5-HT2C IP-One Functional Activity Assays): Intracellular accumulation of IP-1 was measured using an IP-One HTRF assay kit (Cat. #62IPAPEJ, Cisbio) at WuXi AppTec Co. Ltd. (Hong Kong) Discovery Biology Unit according to their standard protocols. Briefly, the reference compounds and screening compounds were 3.16-fold serially diluted in 100% DMSO for 10 points using Bravo. 70 nL of compounds were added to the assay plate using Echo555. Added 14 μL/7500 cells/well of 5-HT2A-expressing HEK293 or 5-HT2C-expressing HEK293 to the assay plate and incubate for 60 min at 37° C. Added 3 μL of IP-1 d2 Reagent working solution and 3 μL of IP-1 Tb Cryptate Antibody working solution to all wells. The plates were incubated for 1 hour at room temperature and read for fluorescence at 620 nm and 665 nm on an EnVision Multimode Plate Reader (PerkinElmer). The ratio of the acceptor and donor emission signals (665/620) were calculated for each individual well and substituted into the standard curve to obtain the log concentration of IP level. After converting to the antilog base IP-1, the average background control signal was subtracted from each well and values were normalized to the maximal response of 5-HT at 3 μM (100%). % MAX was calculated by taking the average normalized maximal response for each compound at the highest concentration tested. The data were analyzed using the four-parameter nonlinear regression curve-fitting function in GraphPad Prism 5 (GraphPad Software, San Diego, CA) to generate potency (EC50) values. The represented plots show normalized IP-1 values versus compound concentrations; the corresponding numerical data are parameter estimates for the concentration-response curve using the four-parameter nonlinear regression curve-fitting function in GraphPad Prism 10.

5-HT2B [3] = target: T1, 5-HT2B; assay: Calcium flux agonist assay, 293T cells; type: cell-based; set-up: expressed in transfected cells; host or cells: Human Embryonic Kidney (293T) cells, transient; details: for Emax: HEK-293T, 5-HT2B, normalized to maximum 5-HT response; for Emax / 5-HT2B receptor activation: calcium flux; for 5-HT2B receptor activation: in words
5-HT2A [4] = target: T2, 5-HT2A; assay: Calcium flux agonist assay, 293T cells; type: cell-based; set-up: expressed in transfected cells; host or cells: Human Embryonic Kidney (293T) cells, transient; details: for Emax: HEK-293T, calcium flux, 5-HT2A, normalized to maximum 5-HT response
male C57BL/6J mice [5] = assay: Mouse head-twitch response (HTR) assay, magnetometer; type: in vivo; details: for HTR (head twitch response), in words: i.p., doses up to 30 mpk
male C57BL/6J mice [6] = assay: Motor activity / distance traveled measured in parallel with HTR; type: in vivo, mouse; details: i.p.; for motor activity, in words: magnetometer activity
[7] = Aqueous solubility by sequential dilution in water, microscopic inspection; details: water, thermodynamic from solid
[8] = Photoabsorption 290-700 nm, molar extinction coefficient (photoliability); type: physicochemical; details: wavelength of maximal absorption between 290 nm and 700 nm
5-HT2C (h) = target: T3, 5-HT2C (h) (Homo sapiens, UniProt P28335); assay: Radioligand binding 5-HT2C (h) (agonist radioligand), [^125I](±)DOI, HEK-293 cells
T3 construct: host or cells: HEK-293 cells
T3 sequence (P28335 33-458): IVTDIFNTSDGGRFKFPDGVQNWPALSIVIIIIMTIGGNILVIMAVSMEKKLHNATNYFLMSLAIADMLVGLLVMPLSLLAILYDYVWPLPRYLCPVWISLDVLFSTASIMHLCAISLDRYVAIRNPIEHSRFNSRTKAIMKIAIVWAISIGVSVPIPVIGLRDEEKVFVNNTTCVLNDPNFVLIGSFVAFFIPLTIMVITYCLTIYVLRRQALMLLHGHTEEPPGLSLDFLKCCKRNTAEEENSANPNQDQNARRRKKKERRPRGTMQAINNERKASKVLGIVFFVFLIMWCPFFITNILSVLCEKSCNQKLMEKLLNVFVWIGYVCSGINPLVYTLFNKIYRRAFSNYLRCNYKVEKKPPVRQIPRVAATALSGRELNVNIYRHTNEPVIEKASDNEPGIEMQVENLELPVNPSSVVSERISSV

5-HT2B (h) = target: T4, 5-HT2B (h) (Homo sapiens, UniProt P41595); assay: Radioligand binding 5-HT2B (h) (agonist radioligand), [^125I](±)DOI, CHO cells
T4 construct: host or cells: CHO cells

5-HT2A (h) = target: T5, 5-HT2A (h) (Homo sapiens, UniProt P28223); assay: Radioligand binding 5-HT2A (h) (agonist radioligand), [^125I](±)DOI, HEK-293 cells; details: 5-HT2A, Hill coefficient
T5 construct: host or cells: HEK-293 cells
T5 sequence (P28223 whole entry, looked up): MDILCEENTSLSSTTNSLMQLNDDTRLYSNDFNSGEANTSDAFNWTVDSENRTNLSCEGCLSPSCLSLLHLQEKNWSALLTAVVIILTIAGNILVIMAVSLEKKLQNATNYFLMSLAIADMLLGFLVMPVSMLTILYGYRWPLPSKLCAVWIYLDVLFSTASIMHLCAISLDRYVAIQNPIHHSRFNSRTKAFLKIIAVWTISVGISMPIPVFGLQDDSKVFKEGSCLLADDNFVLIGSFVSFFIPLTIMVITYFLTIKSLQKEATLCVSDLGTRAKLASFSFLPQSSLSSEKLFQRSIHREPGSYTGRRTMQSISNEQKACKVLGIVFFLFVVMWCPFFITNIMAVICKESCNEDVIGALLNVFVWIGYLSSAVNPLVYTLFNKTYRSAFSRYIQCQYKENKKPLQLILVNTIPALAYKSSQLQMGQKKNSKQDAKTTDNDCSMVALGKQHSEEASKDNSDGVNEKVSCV

T1 sequence (P41595 whole entry): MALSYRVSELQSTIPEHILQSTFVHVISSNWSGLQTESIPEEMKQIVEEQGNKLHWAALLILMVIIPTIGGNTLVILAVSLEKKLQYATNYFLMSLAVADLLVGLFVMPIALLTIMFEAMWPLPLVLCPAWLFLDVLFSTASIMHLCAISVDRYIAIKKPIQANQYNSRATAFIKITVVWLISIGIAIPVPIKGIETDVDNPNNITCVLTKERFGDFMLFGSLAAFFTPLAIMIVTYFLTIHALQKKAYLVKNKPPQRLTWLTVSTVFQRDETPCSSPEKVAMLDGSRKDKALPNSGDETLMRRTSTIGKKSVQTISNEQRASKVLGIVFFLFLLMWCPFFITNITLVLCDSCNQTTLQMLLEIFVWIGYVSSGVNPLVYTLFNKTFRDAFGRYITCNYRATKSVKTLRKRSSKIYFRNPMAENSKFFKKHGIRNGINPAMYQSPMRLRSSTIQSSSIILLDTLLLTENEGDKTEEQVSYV
T4 sequence (P41595 whole entry): as above
T2 sequence (P28223 whole entry, looked up): as the sequence (P28223 whole entry, looked up) above

| SMILES | EC50 (5-HT2B [1]) | EC50 (5-HT2A [2]) | EC50 (5-HT2B [3]) | Emax (5-HT2B [3]) | 5-HT2B receptor activation (5-HT2B [3]) | EC50 (5-HT2A [4]) | Emax (5-HT2A [4]) | ED50 (male C57BL/6J mice [5]; Mus musculus, ip, non-linear regression) | HTR (head twitch response), in words (male C57BL/6J mice [5]) | motor activity ID50 (male C57BL/6J mice [6]) | motor activity, in words (male C57BL/6J mice [6]) | solubility [7] | MEC [8] | Ki (5-HT2C (h)) | nH (5-HT2C (h); 5-HT2C, Hill coefficient) | IC50 (5-HT2B (h)) | Ki (5-HT2B (h)) | nH (5-HT2B (h); 5-HT2B, Hill coefficient) | nH (5-HT2A (h)) |
| --- | --- | --- | --- | --- | --- | --- | --- | --- | --- | --- | --- | --- | --- | --- | --- | --- | --- | --- | --- |
| COc1cc(CCN)c(OC)cc1Br [Compound 2C-B, reference compound] | 0.232 µM | 0.0209 µM | 0.00998 µM | 92.7% | near maximal activation | 0.00062 µM | 105% |  |  |  |  |  |  |  |  |  |  |  |  |
| COc1cc(CC(C)C)c(OC)cc1CCN [Compound 2C-iBu, reference compound] |  |  | 0.0223 µM | 89.1% | near maximal activation | 0.0219 µM | 92.6% | 0.42 mg/kg | produced clear HTR time-course and inverted U-shape dose-response patterns; also recorded: induced HTR activity | 2 mpk | modest but statistically significant effect on motor suppression at the doses of 3 and 10 mpk | 31.2 mM (≈ 7400 µg/mL) |  |  |  |  |  |  |  |
| COc1cc(CC(C)C)c(CO)cc1CCN [Compound 2CiBu-5HM, [5-(2-Aminoethyl)-2-isobutyl-4-methoxy-phenyl]methanol] | 1.12 µM | 0.466 µM |  |  |  |  |  |  |  |  |  | 44.4 mM (≈ 10500 µg/mL) | 340.7 L/mol/cm |  |  |  |  |  |  |
| COc1cc(C[C@@H](C)N)c(OC)cc1I [R-DOI, (−)-R-2,5-dimethoxy-4-iodo-amphetamine, reference compound] |  |  |  |  |  |  |  |  | induced HTR that gradually increased over time |  | increase in motor activity |  |  | 0.0004 µM | 1.0 | 0.0023 µM | 0.0012 µM | 0.7 | 0.7 |
